Measured values: paper PMC8587101, “Design and Synthesis of Novel Betulin Derivatives Containing Thio-/Semicarbazone Moieties as Apoptotic Inducers through Mitochindria-Related Pathways” (Molecules, 2021)
“And” between values parts separate entries of the source, which are not always exact repeats. Identical values can stand only once. Like-named read-outs stand apart in the source and are kept apart here.

What was measured:
[1] = tested on: human breast carcinoma cells (MCF-7); experiment: MTT cytotoxicity assay, MCF-7; assay type: cell-based; conditions: read-out: IC50 (μM) MCF-7
[2] = tested on: human lung carcinoma cells (A549); experiment: MTT cytotoxicity assay, A549; assay type: cell-based; conditions: read-out: IC50 (μM) A549
[3] = tested on: normal human gastric epithelial cells (GES-1); experiment: MTT cytotoxicity assay, GES-1 normal cells; assay type: cell-based; conditions: read-out: IC50 (μM) GES-1
[4] = tested on: human colorectal cells (HCT-116); experiment: MTT cytotoxicity assay, HCT-116; assay type: cell-based; conditions: read-out: IC50 (μM) HCT-116
[5] = Homo sapiens, MCF7, 48 h, MTT, 48 h, means ± SD of three experiments
[6] = A549, MTT, 48 h, means ± SD of three experiments
[7] = GES1, MTT, 48 h, normal cells, means ± SD of three experiments, “-” not active
[8] = HCT-116, MTT, 48 h, means ± SD of three experiments
[9] = MTT, 48 h, means ± SD of three experiments

| Structure (SMILES) | IC50 [1, 5] [µM] | IC50 [2, 6] [µM] | IC50 [3, 7] [µM] | IC50 [4, 8] [µM] | melting point [°C] | IC50 [1, 9] | IC50 ([1]; Homo sapiens, MCF7, 48 h) [µM] | IC50 ([2]; A549, 48 h) [µM] | IC50 ([3]; GES1, 48 h) [µM] | IC50 ([4]; HCT-116, 48 h) [µM] |
| --- | --- | --- | --- | --- | --- | --- | --- | --- | --- | --- |
| CO[C@@]12[C@H](COC(N)=O)C3=C(C(=O)C(C)=C(N)C3=O)N1C[C@@H]1N[C@@H]12 [Mitomycin, Mitomycin C, reference compound] | 15.9 ± 1.03 | 12.8 ± 1.08 | 20.5 ± 1.02 | 11.4 ± 0.87 | – | – | – | – | – | – |
| C=C(C)[C@@H]1CC[C@]2(/C=N/NC(=O)Nc3ccc(Cl)c(C(F)(F)F)c3)CC[C@]3(C)C(CCC4[C@@]5(C)CC[C@H](O)C(C)(C)C5CC[C@]43C)C12 (stereo partly drawn) [Compound 7g, Lup-20(29)-ene-3β-ol-28-N-((3-trifluoromethyl-4-chloro)phenyl)semicarbazide] | < 10 | 33.6 ± 1.15 | 145 ± 3.88 | 13.5 ± 0.74 | 211.6 to 213 | 7.06 ± 0.44 µM | – | – | – | – |
| C=C(C)[C@@H]1CC[C@]2(/C=N/NC(=O)Nc3cccc(C(F)(F)F)c3)CC[C@]3(C)C(CCC4[C@@]5(C)CC[C@H](O)C(C)(C)C5CC[C@]43C)C12 (stereo partly drawn) [Compound 7e, Lup-20(29)-ene-3β-ol-28-N-(3-(trifluoromethyl)phenyl)semicarbazide] | < 10 | 43.8 ± 1.44 | 196 ± 5.82 | 26.1 ± 1.17 | 223.4 to 225.1 | 5.86 µM and 5.96 µM | – | – | – | – |
| C=C(C)[C@@H]1CC[C@]2(/C=N/NC(=S)Nc3ccc(C)cc3)CC[C@]3(C)C(CCC4[C@@]5(C)CC[C@H](O)C(C)(C)C5CC[C@]43C)C12 (stereo partly drawn) [Compound 8c, Lup-20(29)-ene-3β-ol-28-N-(p-tolyl)thiosemicarbazide] | 28.6 ± 1.06 | > 80 | > 80 | 46.3 ± 1.77 | 206.4 to 208.2 | – | – | – | – | – |
| C=C(C)[C@@H]1CC[C@]2(/C=N/NC(=O)Nc3ccc(C(F)(F)F)cc3)CC[C@]3(C)C(CCC4[C@@]5(C)CC[C@H](O)C(C)(C)C5CC[C@]43C)C12 (stereo partly drawn) [Compound 7d, Lup-20(29)-ene-3β-ol-28-N-(4-(trifluoromethyl)phenyl)semicarbazide] | 15.3 ± 1.23 | 29.4 ± 1.12 | 168 ± 4.59 | 28.6 ± 1.36 | 221.5 to 222.7 | – | – | – | – | – |
| C=C(C)[C@@H]1CC[C@]2(/C=N/NC(=O)Nc3ccc(C#N)cc3)CC[C@]3(C)C(CCC4[C@@]5(C)CC[C@H](O)C(C)(C)C5CC[C@]43C)C12 (stereo partly drawn) [Compound 7b, Lup-20(29)-ene-3β-ol-28-N-(4-cyanophenyl)semicarbazide] | < 10 | 25.1 ± 1.01 | 85.4 ± 3.37 | 51.1 ± 2.52 | 236.5 to 238 | 7.88 ± 0.54 µM | – | – | – | – |
| C=C(C)[C@@H]1CC[C@]2(/C=N/NC(=O)Nc3ccc(Cl)cc3)CC[C@]3(C)C(CCC4[C@@]5(C)CC[C@H](O)C(C)(C)C5CC[C@]43C)C12 (stereo partly drawn) [Compound 7a, Lup-20(29)-ene-3β-ol-28-N-(4-chlorophenyl)semicarbazide] | 8.57 ± 0.6 | 18.1 ± 1.03 | 70.8 ± 2.12 | 34.8 ± 1.25 | 227.2 to 228.3 | – | – | – | – | – |
| C=C(C)[C@@H]1CC[C@]2(/C=N/NC(=O)Nc3ccc(OC)cc3)CC[C@]3(C)C(CCC4[C@@]5(C)CC[C@H](O)C(C)(C)C5CC[C@]43C)C12 (stereo partly drawn) [Compound 7c, Lup-20(29)-ene-3β-ol-28-N-(4-methoxyphenyl)semicarbazide] | 44.4 ± 2.26 | > 80 | > 80 | > 80 | 214.2 to 216 | – | – | – | – | – |
| C=C(C)[C@@H]1CC[C@]2(CO)CC[C@]3(C)[C@H](CC[C@@H]4[C@@]5(C)CC[C@H](O)C(C)(C)[C@@H]5CC[C@]43C)[C@@H]12 [Compound 1, lup-20(29)-ene-3β,28-diol, reference compound] | – | – | – | – | – | – | 19.4 ± 0.93 | 27.1 ± 1.2 | 108 ± 4.34 | 30 ± 1.22 |
| C=C(C)[C@@H]1CC[C@]2(/C=N/NC(=S)Nc3ccc(Cl)cc3)CC[C@]3(C)C(CCC4[C@@]5(C)CC[C@H](O)C(C)(C)C5CC[C@]43C)C12 (stereo partly drawn) [Compound 8b, Lup-20(29)-ene-3β-ol-28-N-(4-chlorophenyl)thiosemicarbazide] | < 10 | 18.7 ± 0.98 | 203 ± 5.74 | 49.5 ± 1.44 | 212.5 to 214 | 7.79 ± 0.45 µM | – | – | – | – |
| C=C(C)[C@@H]1CC[C@]2(/C=N/NC(=S)Nc3ccc(Cl)c(Cl)c3)CC[C@]3(C)C(CCC4[C@@]5(C)CC[C@H](O)C(C)(C)C5CC[C@]43C)C12 (stereo partly drawn) [Compound 8g, Lup-20(29)-ene-3β-ol-28-N-(3,4-dichlorophenyl)thiosemicarbazide] | 11.3 ± 1.07 | 16.9 ± 1.05 | 174 ± 5.14 | 20.2 ± 0.87 | 219.8 to 221.8 | – | – | – | – | – |
| C=C(C)[C@@H]1CC[C@]2(/C=N/NC(=S)Nc3ccc(F)cc3)CC[C@]3(C)C(CCC4[C@@]5(C)CC[C@H](O)C(C)(C)C5CC[C@]43C)C12 (stereo partly drawn) [Compound 8a, Lup-20(29)-ene-3β-ol-28-N-(4-fluorophenyl)thiosemicarbazide] | < 10 | 24.1 ± 1.11 | 177 ± 5.02 | 32.5 ± 1.26 | 209.3 to 211 | 9.8 ± 0.58 µM | – | – | – | – |
| C=C(C)[C@@H]1CC[C@]2(/C=N/NC(=S)Nc3ccc(C(C)(C)C)cc3)CC[C@]3(C)C(CCC4[C@@]5(C)CC[C@H](O)C(C)(C)C5CC[C@]43C)C12 (stereo partly drawn) [Compound 8e, Lup-20(29)-ene-3β-ol-28-N-(4-tert-butylphenyl)thiosemicarbazide] | 46.4 ± 3.42 | > 80 | > 80 | > 80 | 216.8 to 218.2 | – | – | – | – | – |
| C=C(C)[C@@H]1CC[C@]2(/C=N/NC(=O)Nc3cccc(C)c3)CC[C@]3(C)C(CCC4[C@@]5(C)CC[C@H](O)C(C)(C)C5CC[C@]43C)C12 (stereo partly drawn) [Compound 7f, Lup-20(29)-ene-3β-ol-8-N-(m-tolyl)semicarbazide] | 26.8 ± 1.34 | > 80 | > 80 | > 80 | 224.2 to 226 | – | – | – | – | – |
| C=C(C)[C@@H]1CC[C@]2(/C=N/NC(=S)Nc3ccc(OC)cc3)CC[C@]3(C)C(CCC4[C@@]5(C)CC[C@H](O)C(C)(C)C5CC[C@]43C)C12 (stereo partly drawn) [Compound 8d, Lup-20(29)-ene-3β-ol-28-N-(4-methoxyphenyl)thiosemicarbazide] | 38.4 ± 1.58 | > 80 | > 80 | > 80 | 203.7 to 205.2 | – | – | – | – | – |
